Assay results reported in ChEMBL document CHEMBL1201862, “PubChem BioAssay data set” (2004).
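How tested: cells in 96-well plates exposed to compound for 48 hours at five concentrations. GI50 marks 50% less growth.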 The source made the active and inactive calls. No stated cut-off is given here; in the data, active = GI50 up to about 1.1 µM and inactive = higher.

Columns and labels:
Assay in all cases: growth of human tumour cells (NCI), 48 h
[1] = test system: M14
[2] = test system: HL-60
[3] = test system: RPMI-8226
[4] = test system: EKVX
[5] = test system: SW-620
[6] = test system: UACC-257
[7] = test system: RXF 393
[8] = test system: Hs-578T
[9] = test system: Malme-3M
[10] = test system: DU-145
[11] = test system: HOP-62
[12] = test system: NCI-H460
[13] = test system: SK-MEL-28
[14] = test system: NCI-H226
[15] = test system: K562
[16] = test system: MDA-N
[17] = test system: LOX IMVI
[18] = test system: COLO 205
[19] = test system: MDA-MB-231

Measured: GI50

COC(=O)[C@@H]1C2OC(C)(C)OC2CN1C(=O)OCc1ccccc1 (stereo partly drawn)
inactive: [1] > 100 µM | [2] > 100 µM | [3] > 100 µM | [4] > 100 µM | [5] > 100 µM | [6] > 100 µM | [7] > 100 µM | [8] > 100 µM | [9] > 100 µM | [10] > 100 µM | [11] > 100 µM | [12] > 100 µM | [13] > 100 µM | [14] > 100 µM | [15] > 100 µM | [16] > 100 µM | [17] > 100 µM | [18] > 100 µM | [19] > 100 µM

OC1C=C2C3CN(Cc4cc5c(cc43)OCO5)[C@H]2C[C@@H]1O (stereo partly drawn)
inactive: [1] 4.22 µM | [2] 2.61 µM | [3] 6.93 µM | [4] 4.36 µM | [5] 5.57 µM | [6] 2.07 µM | [7] 2.54 µM | [8] 26.3 µM | [9] 7.23 µM | [10] 2.64 µM | [11] 6.84 µM | [12] 2.28 µM | [13] 11.5 µM | [14] > 100 µM | [15] 4.31 µM | [16] 3.89 µM | [17] 4.06 µM | [18] 3.78 µM | [19] 18.1 µM

COc1ccc(/C=C/C(=O)c2ccccc2)cc1OC
inactive: [1] 15 µM | [2] 8.89 µM | [3] 7.41 µM | [4] 14.8 µM | [5] 4.23 µM | [6] 17.3 µM | [7] 14.3 µM | [8] 25 µM | [9] 16.7 µM | [10] 11.4 µM | [11] 15.4 µM | [12] 16.6 µM | [13] 21.1 µM | [14] 19.8 µM | [15] 3.21 µM | [16] 4.13 µM | [17] 5.46 µM | [18] 15.9 µM | [19] 19.5 µM

C=CC(COC(=O)C(C)(C)OC(C)=O)c1ccc(OC(=O)C(C)C)c(OC)c1 (stereo not drawn)
inactive: [1] 6.43 µM | [2] 4.6 µM | [3] 3.78 µM | [4] 12.7 µM | [5] 4.84 µM | [6] 14.6 µM | [7] 6.07 µM | [8] 7.46 µM | [9] 2.7 µM | [10] 11.2 µM | [11] 10.1 µM | [12] 2.62 µM | [13] 5.19 µM | [14] 18.2 µM | [15] 30.5 µM | [16] 3.52 µM | [17] 3.17 µM | [18] 2.46 µM | [19] 2.64 µM

CC12CCCCC1=C(F)C(F)(F)S2 (stereo not drawn)
inactive: [1] 37.6 µM | [2] 6.64 µM | [3] 7.46 µM | [4] > 78.7 µM | [5] 24.5 µM | [6] 20.1 µM | [7] 20.5 µM | [8] > 21.5 µM | [9] 24.4 µM | [10] > 89.1 µM | [11] 63.8 µM | [12] > 100 µM | [13] 28 µM | [14] > 100 µM | [15] 17.5 µM | [16] 21.9 µM | [17] 31.8 µM | [18] 15.1 µM | [19] 83.9 µM

O=C(Nc1ccc2[nH]c(C(=O)N3CC(CCl)c4c3cc([N+](=O)[O-])c3ccccc43)cc2c1)c1cc2ccccc2o1 (stereo not drawn)
inactive: [1] > 100 µM | [2] 22.1 µM | [3] > 100 µM | [4] > 100 µM | [5] > 58.1 µM | [6] > 100 µM | [7] > 1100 µM | [8] > 100 µM | [9] > 100 µM | [10] > 51.6 µM | [11] > 100 µM | [12] > 37.5 µM | [13] > 58.1 µM | [14] 48.9 µM | [15] > 100 µM | [16] > 100 µM | [17] > 51.2 µM | [18] > 58.1 µM | [19] > 63 µM

CCOC(=O)/C(=C/NC(=S)Nc1c(CC)cccc1C(C)(C)C)C(=O)c1ccccc1
inactive: [1] > 100 µM | [2] 59.3 µM | [3] 88.9 µM | [4] > 100 µM | [5] > 100 µM | [6] > 100 µM | [7] > 100 µM | [8] 13.2 µM | [9] > 100 µM | [10] > 100 µM | [11] > 100 µM | [12] 10 µM | [13] > 100 µM | [14] > 100 µM | [15] 42.2 µM | [16] > 100 µM | [17] > 100 µM | [18] > 100 µM | [19] > 100 µM
